Assay results: US9351965B2, “Indazole derivatives useful as ERK inhibitors” (Merck Sharp & Dohme Corp., priority 2010, dated 2016)

Biological target: fully phosphorylated, active Mouse ERK2 protein (Mus musculus (Mouse), UniProt P63085)
Experiment: Active ERK2 (aERK) IMAP assay
Type: biochemical
Details: IMAP fluorescence polarization; 30 μM ATP; 30 minute pre-incubation

Sequence of fully phosphorylated, active Mouse ERK2 protein (P63085 whole entry): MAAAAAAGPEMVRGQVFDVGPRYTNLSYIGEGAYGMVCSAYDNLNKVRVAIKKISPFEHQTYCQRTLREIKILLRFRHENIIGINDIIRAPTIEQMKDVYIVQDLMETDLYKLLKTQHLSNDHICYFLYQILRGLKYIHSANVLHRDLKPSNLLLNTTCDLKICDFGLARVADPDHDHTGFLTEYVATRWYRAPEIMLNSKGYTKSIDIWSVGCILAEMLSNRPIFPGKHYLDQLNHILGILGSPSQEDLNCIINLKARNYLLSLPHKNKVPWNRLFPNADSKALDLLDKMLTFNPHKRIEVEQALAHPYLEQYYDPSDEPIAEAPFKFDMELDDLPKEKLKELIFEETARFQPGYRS

Compound | IC50 [nM]
Cc1cc(-c2n[nH]c3ccc(C(=O)NC4CCCC(O)(Cc5ccccc5F)C4)cc23)ccn1 (single isomer, unassigned) [compound 4, N-[3-[(2-fluorophenyl)methyl]-3-hydroxycyclo-hexyl]-3-(2-methyl-4-pyridinyl)-1H-indazole-5-carboxamide] | 128
Cc1cc(-c2n[nH]c3ccc(C(=O)NC4CCCC(O)(Cc5c(F)cccc5F)C4)cc23)ccn1 (single isomer, unassigned) [compound 7, N-[3-[(2,6-difluorophenyl)methyl]-3-hydroxycyclohexyl]-3-(2-methyl-4-pyridinyl)-1H-indazole-5-carboxamide] | 15.2
Cc1cc(-c2n[nH]c3ccc(C(=O)NC4CCCC(Oc5ccccc5Cl)C4)cc23)ccn1 (single isomer, unassigned) [compound 35, N-[3-(2-chlorophenoxy)cyclohexyl]-3-(2-methyl-4-pyridinyl)-1H-indazole-5-carboxamide] | 192
Cc1cc(-c2n[nH]c3ccc(C(=O)NC4CCCC(Oc5ccccc5F)C4)cc23)ccn1 (stereo not shown) [compound 33, N-[3-(2-fluorophenoxy)cyclohexyl]-3-(2-methyl-4-pyridinyl)-1H-indazole-5-carboxamide] | 114
O=C(N[C@@H]1CCC[C@](O)(Cc2c(F)cccc2F)C1)c1ccc2[nH]nc(-c3ccc4ncsc4c3)c2c1 [compound 20, 3-(6-benzothiazolyl)-N-[3(S)-[(2,6-difluorophenyl)methyl]-3-hydroxy-1(R)-cyclohexyl]-1H-indazole-5-carboxamide] | 33.9
Cc1nc2ccc(-c3n[nH]c4ccc(C(=O)N[C@@H]5CCC[C@](O)(Cc6c(F)cccc6F)C5)cc34)cc2s1 [compound 14, N-[3(S)-[(2,6-difluorophenyl)methyl]-3-hydroxy-1(R)-cyclohexyl]-3-(2-methyl-6-benzothiazolyl)-1H-indazole-5-carboxamide] | 15.4
Cc1nc2ccc(-c3n[nH]c4ccc(C(=O)N[C@@H]5CCC[C@](O)(Cc6ccccc6F)C5)cc34)cc2s1 [compound 13, N-[3(S)-[(2-fluorophenyl)methyl]-3-hydroxy-1(R)-cyclohexyl]-3-(2-methyl-6-benzothiazolyl)-1H-indazole-5-carboxamide] | 19.9
Cc1cc(-c2n[nH]c3ccc(C(=O)N[C@@H]4CCC[C@@](O)(Cn5ncc6ccccc65)C4)cc23)ccn1 [compound 66, N-[3(S)-hydroxy-3-(1H-indazol-1-ylmethyl)-1(R)-cyclohexyl]-3-(2-methyl-4-pyridinyl)-1H-indazole-5-carboxamide] | 7
Cc1cc(-c2n[nH]c3ccc(C(=O)NC4CCCC(F)(Cc5ccccc5F)C4)cc23)ccn1 (racemic) [compound 54, N-[3-fluoro-3-[(2-fluorophenyl)methyl]cyclohexyl]-3-(2-methyl-4-pyridinyl)-1H-indazole-5-carboxamide (racemic)] | 1000
Cc1cc(-c2n[nH]c3ccc(C(=O)NC4CCCC(O)(Cc5c(F)cccc5F)C4)cc23)ccn1 (single isomer, unassigned) [compound 5, N-[3-[(2,6-difluorophenyl)methyl]-3-hydroxycyclohexyl]-3-(2-methyl-4-pyridinyl)-1H-indazole-5-carboxamide] | 1000
Cc1cc(-c2n[nH]c3ccc(C(=O)NC4CCCC(O)(Cc5ccccc5F)C4)cc23)ccn1 (single isomer, unassigned) [compound 2, N-[3-[(2-fluorophenyl)methyl]-3-hydroxycyclo-hexyl]-3-(2-methyl-4-pyridinyl)-1H-indazole-5-carboxamide] | 20.8
Cc1cc(-c2n[nH]c3ccc(C(=O)N[C@@H]4CCC[C@](O)(Cn5cnc6cccnc65)C4)cc23)ccn1 (relative stereo) [compound 72, N-[trans-3-hydroxy-3-(3H-imidazo[4,5-b]pyridin-3-ylmethyl)cyclohexyl]-3-(2-methyl-4-pyridinyl)-1H-indazole-5-carboxamide] | 537
Cn1cc2cc(-c3n[nH]c4ccc(C(=O)N[C@@H]5CCC[C@@](O)(Cn6ccnc6)C5)cc34)ccc2n1 (relative stereo) [compound 57, N-[cis-3-hydroxy-3-(1H-imidazol-1-ylmethyl)cyclohexyl]-3-(2-methyl-2H-indazol-5-yl)-1H-indazole-5-carboxamide] | 37.8

Other lines, results leading:

IC50 [nM] | Compound
33.8 | Cc1cc(-c2n[nH]c3ccc(C(=O)NC4CCCC(Cn5ncc6ccncc65)C4)cc23)ccn1 (stereo not shown) [compound 115, 3-(2-methyl-4-pyridinyl)-N-[3-(1H-pyrazolo[3,4-c]pyridin-1-ylmethyl)cyclohexyl]-1H-indazole-5-carboxamide]
410 | Cc1cc(-c2n[nH]c3ccc(C(=O)N[C@@H]4CCC[C@](O)(Cn5ncc6cnccc65)C4)cc23)ccn1 (relative stereo) [compound 87, N-[trans-3-hydroxy-3-(1H-pyrazolo[4,3-c]pyridin-1-ylmethyl)cyclohexyl]-3-(2-methyl-4-pyridinyl)-1H-indazole-5-carboxamide]
497 | Cc1cc(-c2n[nH]c3ccc(C(=O)N[C@@H]4CCC[C@](O)(CN5C(=O)Cc6ccccc65)C4)cc23)ccn1 (relative stereo) [compound 88, N-[trans-3-[(2,3-dihydro-2-oxo-1H-indol-1-yl)methyl]-3-hydroxycyclohexyl]-3-(2-methyl-4-pyridinyl)-1H-indazole-5-carboxamide]
162 | Cc1cc(-c2n[nH]c3ccc(C(=O)NC4CCCC(Cc5ccccc5F)(NC=O)C4)cc23)ccn1 (stereo not shown) [compound 153, N-[3-[(2-fluorophenyl)methyl]-3-(formylamino)cyclohexyl]-3-(2-methyl-4-pyridinyl)-1H-indazole-5-carboxamide]
616 | Cc1cc(-c2n[nH]c3ccc(C(=O)N[C@@H]4CCC[C@](O)(Cn5cc6cccnc6n5)C4)cc23)ccn1 (relative stereo) [compound 73, N-[trans-3-hydroxy-3-(2H-pyrazolo[3,4-b]pyridin-2-ylmethyl)cyclohexyl]-3-(2-methyl-4-pyridinyl)-1H-indazole-5-carboxamide]
530 | Cc1cc(-c2n[nH]c3ccc(C(=O)NC4CCCC(Cn5ncc6cnccc65)C4)cc23)ccn1 (stereo not shown) [compound 119, 3-(2-methyl-4-pyridinyl)-N-[3-(1H-pyrazolo[4,3-c]pyridin-1-ylmethyl)cyclohexyl]-1H-indazole-5-carboxamide]
32.2 | Cc1cc(-c2n[nH]c3ccc(C(=O)NN4CCC(CO)(Cc5ccccc5F)C4)cc23)ccn1 (stereo not shown) [compound 150, N-[3-[(2-fluorophenyl)methyl]-3-(hydroxymethyl)-1-pyrrolidinyl]-3-(2-methyl-4-pyridinyl)-1H-indazole-5-carboxamide]
1000 | Cc1cc(-c2n[nH]c3ccc(C(=O)N[C@H]4CCC[C@@](O)(Cn5cc6ccc(C(F)(F)F)cc6n5)C4)cc23)ccn1 (relative stereo) [compound 105, N-[trans-3-hydroxy-3-[[6-(trifluoromethyl)-2H-indazol-2-yl]methyl]cyclohexyl]-3-(2-methyl-4-pyridinyl)-1H-indazole-5-carboxamide]
223 | Cc1cc(-c2n[nH]c3ccc(C(=O)NC4CCCC(CO)(Cc5ccccc5)C4)cc23)ccn1 (stereo not shown) [compound 132, N-[3-(hydroxymethyl)-3-(phenylmethyl)cyclohexyl]-3-(2-methyl-4-pyridinyl)-1H-indazole-5-carboxamide]
445 | Cc1cc(-c2n[nH]c3ccc(C(=O)NC4CCCC(CO)(Cc5c(F)cccc5F)C4)cc23)ccn1 (stereo not shown) [compound 137, N-[3-[(2,6-difluorophenyl)methyl]-3-(hydroxymethyl)cyclohexyl]-3-(2-methyl-4-pyridinyl)-1H-indazole-5-carboxamide]
636 | Cc1cc(-c2n[nH]c3ccc(C(=O)NC4CCCC(CO)(Cc5c(F)cccc5F)C4)cc23)ccn1 (stereo not shown) [compound 129, N-[3-[(2,6-difluorophenyl)methyl]-3-(hydroxymethyl)cyclohexyl]-3-(2-methyl-4-pyridinyl)-1H-indazole-5-carboxamide]
792 | Cc1cc(-c2n[nH]c3ccc(C(=O)N[C@@H]4CCC[C@](O)(Cn5ncc6ccncc65)C4)cc23)ccn1 (relative stereo) [compound 74, N-[trans-3-hydroxy-3-(1H-pyrazolo[3,4-c]pyridin-1-ylmethyl)cyclohexyl]-3-(2-methyl-4-pyridinyl)-1H-indazole-5-carboxamide]
109 | Cc1cc(-c2n[nH]c3ccc(C(=O)NC4CCCC(CO)(Cc5ccccc5F)C4)cc23)ccn1 (stereo not shown) [compound 133, N-[3-[(2-fluorophenyl)methyl]-3-(hydroxymethyl)cyclohexyl]-3-(2-methyl-4-pyridinyl)-1H-indazole-5-carboxamide]
15.4 | Cc1cc(-c2n[nH]c3ccc(C(=O)NC4CCCC(Cn5ncc6cccnc65)C4)cc23)ccn1 (stereo not shown) [compound 114, 3-(2-methyl-4-pyridinyl)-N-[3-(1H-pyrazolo[3,4-b]pyridin-1-ylmethyl)cyclohexyl]-1H-indazole-5-carboxamide]
825 | Cc1cc(-c2n[nH]c3ccc(C(=O)N[C@@H]4CCC[C@@](O)(Cn5cnc6ncccc65)C4)cc23)ccn1 (relative stereo) [compound 81, N-[cis-3-hydroxy-3-(1H-imidazo[4,5-b]pyridin-1-ylmethyl)cyclohexyl]-3-(2-methyl-4-pyridinyl)-1H-indazole-5-carboxamide]
1000 | Cc1cc(-c2n[nH]c3ccc(C(=O)N[C@@H]4CCC[C@@](O)(Cn5ncccc5=O)C4)cc23)ccn1 (relative stereo) [compound 84, N-[cis-3-hydroxy-3-[(6-oxo-1(6h)-pyridazinyl)methyl]cyclohex-yl]-3-(2-methyl-4-pyridinyl)-1H-indazole-5-carboxamide]
26.8 | Cc1cc(-c2n[nH]c3ccc(C(=O)NN4CCCC(Oc5ccccc5F)C4)cc23)ccn1 (stereo not shown) [compound 143, N-[3-(2-fluorophenoxy)-1-piperidinyl]-3-(2-methyl-4-pyridinyl)-1H-indazole-5-carboxamide]
10.7 | Cc1cc(-c2n[nH]c3ccc(C(=O)NC4CCCC(Cn5ncc6ccccc65)C4)cc23)ccn1 (stereo not shown) [compound 123, N-[3-(1H-indazol-1-ylmethyl)cyclohexyl]-3-(2-methyl-4-pyridinyl)-1H-indazole-5-carboxamide]
